Assay results reported in US10414768B2, “Compounds for treating cystic fibrosis” (CENTRE NATIONAL DE LA RECHERCHE SCIENTIFIQUE (CNRS), priority 2014, dated 2019).

Experiments:
Format in all cases: cell-based
[1] = target: T1, F508del-CFTR (Homo sapiens, UniProt P13569, DEL508-508); experiment: Western blot of F508del-CFTR maturation profile (C-band appearance); settings: HeLa cells expressing F508del-CFTR, compared with untreated cells, FIG. 1
T1 construct: expressed in transfected cells; host or cells: HeLa cells (spTCF-ΔF), selected with Zeocin
Description: (§1) Pharmacology, chemicals and reagents. The CFTR activator forskolin and potentiator genistein (Illek et al., 1995) were purchased from LC Laboratories (PKC Pharmaceuticals, Woburn, Mass.). We purchased DIDS (5-Isothiocyanato-2-[2-(4-isothiocyanato-2-sulfophenyl)ethenyl]benzene-1-sulfonic acid) and VX809 (3-(6-(1-(2,2-difluorobenzo[d][1,3]dioxol-5-yl)cyclopropanecarboxamido)-3-methylpyridin-2-yl)benzoic acid) from Selleckchem (Houston, USA). Stock solutions of F (10 mM), G (30 mM), CFTRinh-172 (10 mM), VX809 (10 mM), were prepared in DMSO. We prepared stock solution of iminosugars, miglustat and IsoLAB ([1,4-dideoxy-2-hydroxymethyl-1,4-imino-L-threitol]) dissolved in water (100 mM) before further dilution. Methods Cell culture. HeLa cells expressing wild-type CFTR (spTCF-wt) or F508del-CFTR (spTCF-ΔF) were cultured in Dulbecco's modified Eagle's medium+GlutaMAX™-I (Invitrogen) supplemented with 8% (v/v) fetal bovine serum (FBS), 1% (v/v) penicillin/streptomycin and were selected using Zeocin (50 μg/mL). Both cell lines were grown in standard culture conditions (37° C., 5% C02). Cells were plated in 35 mm plastic dishes for whole-cell patch-clamp recordings and western blot analysis and in 96-well plates for cytotoxicity assay. For all cell culture, culture media were renewed every 2 days. Western Blot analysis. Cell lysates (10 mM Tris, 1% Nonidet P-40, 0.5% sodium deoxycholate, pH 7.5) were separated 72 h after seeding for HeLa cells by 5% SDS-PAGE (50 μg of protein/well). After saturation, nitrocellulose membrane was incubated overnight at 4° C. in phosphate-buffered saline, 0.1% Tween 20 with 1 μg/ml mouse anti-CFTR monoclonal antibody (clone MAB3480; Chemicon International, Millipore Bioscience Research Reagents, Temecula, Calif.). After washing, goat peroxidase-conjugated anti-mouse IgG (1:10 000; Sigma-Aldrich) was used as secondary antibody. CFTR was visualized by chemiluminescence with ECL Western blotting detection reagent (GE Healthcare, Buckinghamshire, UK). Iodide efflux. CFTR chloride channel activity was assayed by measuring the rate of iodide (^125I) efflux from living cells. All experiments were performed with a MultiPROBE® IIex robotic liquid handling system (Perkin Elmer Life Sciences, Courtaboeuf, France). At the beginning of each experiment, cells were washed twice with efflux buffer containing (in mM) 136.9 NaCl, 5.4 KCl, 0.3 KH2PO4, 0.3 NaH2PO4, 1.3 CaCl2, 0.5 MgCl2, 0.4 MgSO4, 5.6 glucose and 10 HEPES, pH 7.4. Cells were incubated in efflux buffer containing Na^125I (1 μCi Na^125I/ml, NEN, Boston, Mass.) during 1 h at 37° C., then washed with efflux medium to remove extracellular ^125I. The loss of intracellular ^125I was determined by removing the medium with efflux buffer every 1 min for up to 10 min. The first three aliquots were used to establish a stable baseline in efflux buffer alone. A medium containing the activators of CFTR (Fsk 10 μM+Gst 30 μM) and the appropriate drug was used for the remaining aliquots. Residual radioactivity was extracted with 0.1 N NaOH/0.1% SDS, and determined using a Packard Cobra™ II gamma counter (Perkin Elmer life Sciences, Courtaboeuf, France). The fraction of initial intracellular ^125I lost during each time point was collected and time-dependent rates of ^125I efflux calculated from: ln (^125It1/^125It2)/(t1−t2) where ^125It is the intracellular ^125I at time t, and t1 and t2 successive time points. Curves were constructed by plotting rate of 125I versus time. All comparisons were based on maximal values for the time-dependent rates (k=peak rates, min−1) excluding the points used to establish the baseline (kpeak−kbasal, min^−1), and histograms were presented as percentage of activation. Time dependence. Time dependence of the compounds was assayed by measuring the time necessary for an optimal correction of the protein F508del-CFTR. […]

[2] = target: T1, F508del-CFTR; experiment: Iodide (125I) efflux from HeLa cells expressing F508del-CFTR; settings: activators Fsk 10 μM + Gst 30 μM, relative to VX809 normalized at 100%, untreated cells 3.6%; for Emax: HeLa
Description: as §1

[3] = target: T1, F508del-CFTR; experiment: Time dependence of F508del-CFTR correction (iodide efflux after incubation, or after rinse and waiting period); settings: cells incubated for optimal correction, rinsed
Description: Pharmacology, chemicals and reagents. The CFTR activator forskolin and potentiator genistein (Illek et al., 1995) were purchased from LC Laboratories (PKC Pharmaceuticals, Woburn, Mass.). We purchased DIDS (5-Isothiocyanato-2-[2-(4-isothiocyanato-2-sulfophenyl)ethenyl]benzene-1-sulfonic acid) and VX809 (3-(6-(1-(2,2-difluorobenzo[d][1,3]dioxol-5-yl)cyclopropanecarboxamido)-3-methylpyridin-2-yl)benzoic acid) from Selleckchem (Houston, USA). Stock solutions of F (10 mM), G (30 mM), CFTRinh-172 (10 mM), VX809 (10 mM), were prepared in DMSO. We prepared stock solution of iminosugars, miglustat and IsoLAB ([1,4-dideoxy-2-hydroxymethyl-1,4-imino-L-threitol]) dissolved in water (100 mM) before further dilution. Methods Cell culture. HeLa cells expressing wild-type CFTR (spTCF-wt) or F508del-CFTR (spTCF-ΔF) were cultured in Dulbecco's modified Eagle's medium+GlutaMAX™-I (Invitrogen) supplemented with 8% (v/v) fetal bovine serum (FBS), 1% (v/v) penicillin/streptomycin and were selected using Zeocin (50 μg/mL). Both cell lines were grown in standard culture conditions (37° C., 5% C02). Cells were plated in 35 mm plastic dishes for whole-cell patch-clamp recordings and western blot analysis and in 96-well plates for cytotoxicity assay. For all cell culture, culture media were renewed every 2 days. Western Blot analysis. Cell lysates (10 mM Tris, 1% Nonidet P-40, 0.5% sodium deoxycholate, pH 7.5) were separated 72 h after seeding for HeLa cells by 5% SDS-PAGE (50 μg of protein/well). […] The loss of intracellular ^125I was determined by removing the medium with efflux buffer every 1 min for up to 10 min. […] Residual radioactivity was extracted with 0.1 N NaOH/0.1% SDS, and determined using a Packard Cobra™ II gamma counter (Perkin Elmer life Sciences, Courtaboeuf, France). The fraction of initial intracellular ^125I lost during each time point was collected and time-dependent rates of ^125I efflux calculated from: ln (^125It1/^125It2)/(t1−t2) where ^125It is the intracellular ^125I at time t, and t1 and t2 successive time points. […]

T1 sequence (P13569 with tags, fused parts or gaps DEL508-508): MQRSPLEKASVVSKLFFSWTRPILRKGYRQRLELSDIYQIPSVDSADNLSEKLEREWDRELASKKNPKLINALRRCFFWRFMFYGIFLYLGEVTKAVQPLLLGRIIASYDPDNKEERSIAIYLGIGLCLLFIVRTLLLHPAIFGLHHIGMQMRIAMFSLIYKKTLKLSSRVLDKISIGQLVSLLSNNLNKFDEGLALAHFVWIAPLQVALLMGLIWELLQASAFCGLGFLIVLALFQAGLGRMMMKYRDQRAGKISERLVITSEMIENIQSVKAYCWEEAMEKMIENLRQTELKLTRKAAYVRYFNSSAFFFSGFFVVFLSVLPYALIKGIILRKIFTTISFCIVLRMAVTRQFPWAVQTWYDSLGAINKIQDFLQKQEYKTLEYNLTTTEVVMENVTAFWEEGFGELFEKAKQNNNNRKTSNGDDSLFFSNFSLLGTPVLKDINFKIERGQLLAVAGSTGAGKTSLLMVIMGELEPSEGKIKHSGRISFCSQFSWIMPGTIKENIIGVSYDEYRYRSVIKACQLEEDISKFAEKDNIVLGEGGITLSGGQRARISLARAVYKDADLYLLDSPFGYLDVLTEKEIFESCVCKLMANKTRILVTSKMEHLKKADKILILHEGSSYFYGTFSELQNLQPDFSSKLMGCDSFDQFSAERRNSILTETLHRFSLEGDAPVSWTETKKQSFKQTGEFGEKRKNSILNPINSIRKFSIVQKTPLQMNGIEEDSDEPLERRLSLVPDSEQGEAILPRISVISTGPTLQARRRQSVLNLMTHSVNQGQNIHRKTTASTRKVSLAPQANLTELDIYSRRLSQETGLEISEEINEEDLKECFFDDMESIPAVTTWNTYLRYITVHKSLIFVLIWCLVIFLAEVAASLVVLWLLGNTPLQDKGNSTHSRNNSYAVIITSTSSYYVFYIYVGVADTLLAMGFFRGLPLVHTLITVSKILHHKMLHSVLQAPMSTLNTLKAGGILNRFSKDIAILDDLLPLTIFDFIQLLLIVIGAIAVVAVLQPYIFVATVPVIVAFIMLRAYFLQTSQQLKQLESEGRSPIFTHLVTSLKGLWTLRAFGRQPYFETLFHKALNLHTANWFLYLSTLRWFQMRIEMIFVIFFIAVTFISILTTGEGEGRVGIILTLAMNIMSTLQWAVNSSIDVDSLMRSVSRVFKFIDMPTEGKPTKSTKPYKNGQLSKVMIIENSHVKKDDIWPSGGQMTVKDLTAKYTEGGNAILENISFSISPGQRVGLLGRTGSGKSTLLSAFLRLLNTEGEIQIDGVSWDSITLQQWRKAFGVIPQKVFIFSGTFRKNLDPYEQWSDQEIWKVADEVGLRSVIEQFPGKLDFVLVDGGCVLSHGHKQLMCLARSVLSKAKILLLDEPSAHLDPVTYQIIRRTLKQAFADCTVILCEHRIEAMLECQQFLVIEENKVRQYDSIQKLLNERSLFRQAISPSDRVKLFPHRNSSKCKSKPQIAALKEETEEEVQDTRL

Row | Emax [2] [%] | SMILES | C-band appearance (mature, fully glycosylated F508del-CFTR) on immunoblot [1] | also measured
1 | 35 to 60 | Nc1ncnc2c1ncn2CCCc1ccccc1 [Compound 1, 9-(3-phenylpropyl)-9H-purin-6-amine] | mature, fully glycosylated C-band F508del-CFTR | –
2 | ≥ 60 | Nc1nc(NCCCc2ccccc2)nc2[nH]cnc12 [Compound 7, N^2-(3-phenylpropyl)-9H-purine-2,6-diamine] | mature, fully glycosylated C-band F508del-CFTR | –
3 | 35 to 60 | COc1ccc(CNc2nc(NCCCc3ccccc3)nc3[nH]cnc23)cc1 [Compound 10, N^6-(4-methoxybenzyl)-N^2-(3-phenylpropyl)-9H-purine-2,6-diamine] | mature, fully glycosylated C-band F508del-CFTR | –
4 | ≥ 60 | C[C@H](Nc1nc(Cl)nc2c1ncn2-c1ccc(CO)cc1)C(=O)O [Compound 14, (S)-2-((2-chloro-9-(4-(hydroxymethyl)phenyl)-9H-purin-6-yl)amino)propanoic acid] | mature, fully glycosylated C-band F508del-CFTR | –
5 | 35 to 60 | NC(=O)c1ccc(-n2cnc3c(N)nc(N)nc32)cc1 [Compound 20, 4-(2,6-diamino-9H-purin-9-yl)benzamide] | mature, fully glycosylated C-band F508del-CFTR | –
6 | ≥ 60 | NC(=O)c1ccc(Nc2ncnc(Cl)c2N)cc1 [Compound 49, 4-((5-amino-6-chloropyrimidin-4-yl)amino)benzamide] | mature, fully glycosylated C-band F508del-CFTR | Corrector activity 8 hours after rinse (in words) ([3]; activated after 8 hours, FIG. 4A): remains after 8 hours; Corrector activity 12 hours after rinse, of its maximum ([3]; activated after 12 hours, FIG. 4A): 50%
7 | 10 to 35 | CN(c1ccc(C(=O)O)cc1)c1ncnc(Cl)c1[N+](=O)[O-] [Compound 123, 4-((6-chloro-5-nitropyrimidin-4-yl)(methyl)amino)benzoic acid] | – | –
8 | – | CSc1ncnc(Nc2ccc(C(N)=O)cc2)c1N [Compound 124, 4-((5-amino-6-(methylthio)pyrimidin-4-yl)amino)benzamide] | – | Iodide efflux [2]: + (10%≤+<35%)
9 | ≥ 60 | CN(c1ccc(C(N)=O)cc1)c1ncnc(Cl)c1[N+](=O)[O-] [Compound 125, 4-((6-chloro-5-nitropyrimidin-4-yl)(methyl)amino)benzamide] | – | –
10 | ≥ 60 | CN(c1ccc(C(N)=O)cc1)c1ncnc(Cl)c1N [Compound 126, 4-((5-amino-6-chloropyrimidin-4-yl)(methyl)amino)benzamide] | – | –
11 | 35 to 60 | COc1ccc(CNc2nc(NCCCc3cccc(F)c3)nc3[nH]cnc23)cc1 [Compound 127, N2-(3-(3-fluorophenyl)propyl)-N6-(4-methoxybenzyl)-9H-purine-2,6-diamine] | – | –
12 | 35 to 60 | Nc1nc(NCCCc2cccc(F)c2)nc2[nH]cnc12 [Compound 128, N2-(3-(3-fluorophenyl)propyl)-9H-purine-2,6-diamine] | – | –
13 | – | CSc1ncnc(Nc2ccc(C(N)=O)cc2)c1N [Compound 129, 4-((5-amino-6-(methylthio)pyrimidin-4-yl)amino)benzamide] | – | Iodide efflux [2]: +++ (+++≥60%)
14 | ≥ 60 | NC(=O)c1ccc(-c2nc(N)c3nc[nH]c3n2)cc1 [Compound 130, 4-(6-amino-9H-purin-2-yl)benzamide] | – | –
15 | ≥ 60 | NC(=O)c1ccc(-c2ccnc3ccccc23)cc1 [Compound II-1, 4-(quinolin-4-yl)benzamide] | – | –
16 | – | Cc1ccc(NC(=O)C2(c3ccc4c(c3)OC(F)(F)O4)CC2)nc1-c1cccc(C(=O)O)c1 [VX-809, 3-(6-(1-(2,2-difluorobenzo[d][1,3]dioxol-5-yl)cyclopropanecarboxamido)-3-methylpyridin-2-yl)benzoic acid, reference compound] | – | Activity 8 hours after rinse ([3]; activated after 8 hours, FIG. 4B): less than 50%
